Measurements reported in patent EP0248231B1, “Pharmacologically active peptides” (Brantl, Victor, Dr. med., Dipl.-Chem., priority 1986, dated 1993).
Residues, ends and D or L forms follow the SMILES beside them.

System: plexus myentericus/ Längsmuskel-Präparat des Meerschweinchenileums (GPI)
Experiment: Inhibition of electrically induced contraction of the myenteric plexus/longitudinal muscle preparation of guinea pig ileum (GPI)
Format: cell-based
Details: means of 4-6 determinations; standard deviation below 14 %; read-out: GPI: Konzentration, die notwendig ist, die elektrisch induzierte Kontraktion des Meerschweinchen-Darm-Präparates (GPI) um 50 % zu hemmen (IC₅₀-Wert)
Source text: Die beiden Substanzen zeigen spezifische opiatartige Wirkungen am elektrisch stimulierten plexus myentericus/ Längsmuskel-Präparat des Meerschweinchenileums (GPI), Methode: Schulz und Goldstein, J. Pharmacol. Exptl. Ther. 183, 400, 1972. Die Ergebnisse sind in Tabelle 1 aufgeführt.
Tabelle 1. Opiatartige Wirkungen zweier erfindungsgemäßer Peptide; die Zahlen geben diejenige Konzentration (µM) an, die notwendig ist, die elektrisch induzierte Kontraktion des Meerschweinchen-Darm-Präparates (GPI) um 50 % zu hemmen (IC₅₀-Wert). Die Zahlen sind Mittelwerte aus 4-6 Bestimmungen; die Standardabweichung von den Mittelwerten ist kleiner als 14 %. Die Hemmungen des GPI sind mit dem spezifischen Opioid-Antagonisten Naloxon aufhebbar bzw. bei Vorbehandlung blockierbar. (Endkonzentration des Naloxons im Organbad 0,5 µM).

Molecule | IC50
C[C@@H](O)[C@H](NC(=O)[C@H](Cc1c[nH]c2ccccc12)NC(=O)[C@@H]1CCCN1C(=O)[C@@H](N)Cc1ccc(O)cc1)C(=O)O [Tyr-Pro-Trp-Thr, H-Tyr-Pro-Trp-Thr-OH] (H-YPWT-OH) | 45.2 µM
Oc1ccc2c3c1O[C@H]1[C@@H](O)C=C[C@H]4[C@@H](C2)NCC[C@@]341 [Normorphin] | 0.1 µM
H-YPWTQ-OH [Tyr-Pro-Trp-Thr-Gln, H-Tyr-Pro-Trp-Thr-Gln-OH] | 46.1 µM
